This note sets out measurements from publication PMC8780828 (Viruses, 2021).

Bounds are passed on as bounds.

Data set [1] relates to control pseudovirus NL4-3.Luc.R-E-/A-MLV. The data set is described as follows: Control pseudovirus A-MLV assay in 293T/ACE2 cells. It counts as cell-based, amphotropic murine leukemia virus (A-MLV). The note with it: NL43, 293T/ACE2.
The test system of a further data set is Trypsin. It counts as biochemical.
Data set [2] relates to pseudovirus NL4-3ΔEnv-NanoLuc/MERS-CoV. The data set is described as follows: microbe, parasite or virus in culture. Type of data set: cell-based. To be noted: Middle East respiratory syndrome-related coronavirus, MRC5; n=3; read-out: IC50.
Data set [3] concerns SARS-CoV-2 (US_WA-1/2020). Type of data set: cell-based.
The subject of data set [4] is pseudovirus NL4-3ΔEnv-NanoLuc/SARS-CoV-2. The data set is described as follows: SARS-CoV-2 pseudovirus assay with pre-treated 293T/ACE2 cells. Type of data set: cell-based. The note with it: 293T/ACE2 cells pre-treated with compound 30 min before infection.
Another data set deals with CYP2C8 (Homo sapiens, UniProt P10632). Nature of the data set: biochemical.
Chain of CYP2C8 (P10632 whole entry): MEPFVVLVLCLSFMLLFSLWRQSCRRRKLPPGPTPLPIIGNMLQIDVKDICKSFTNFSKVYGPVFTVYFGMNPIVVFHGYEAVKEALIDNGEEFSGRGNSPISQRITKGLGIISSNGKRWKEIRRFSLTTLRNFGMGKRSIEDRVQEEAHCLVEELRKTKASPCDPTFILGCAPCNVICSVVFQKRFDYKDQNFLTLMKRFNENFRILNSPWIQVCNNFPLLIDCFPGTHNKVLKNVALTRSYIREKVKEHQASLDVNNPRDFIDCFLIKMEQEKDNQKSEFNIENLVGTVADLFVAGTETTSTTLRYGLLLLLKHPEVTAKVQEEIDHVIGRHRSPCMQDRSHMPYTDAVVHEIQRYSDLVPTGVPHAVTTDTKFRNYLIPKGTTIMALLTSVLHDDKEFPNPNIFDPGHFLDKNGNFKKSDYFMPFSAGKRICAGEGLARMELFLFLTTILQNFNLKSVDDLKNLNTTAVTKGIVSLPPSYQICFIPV
In the next data set the target is CYP1A2 (Homo sapiens, UniProt P05177). The data set is described as follows: in vitro. To be noted: microsomes, pH 7.4.
Chain of CYP1A2 (P05177 whole entry): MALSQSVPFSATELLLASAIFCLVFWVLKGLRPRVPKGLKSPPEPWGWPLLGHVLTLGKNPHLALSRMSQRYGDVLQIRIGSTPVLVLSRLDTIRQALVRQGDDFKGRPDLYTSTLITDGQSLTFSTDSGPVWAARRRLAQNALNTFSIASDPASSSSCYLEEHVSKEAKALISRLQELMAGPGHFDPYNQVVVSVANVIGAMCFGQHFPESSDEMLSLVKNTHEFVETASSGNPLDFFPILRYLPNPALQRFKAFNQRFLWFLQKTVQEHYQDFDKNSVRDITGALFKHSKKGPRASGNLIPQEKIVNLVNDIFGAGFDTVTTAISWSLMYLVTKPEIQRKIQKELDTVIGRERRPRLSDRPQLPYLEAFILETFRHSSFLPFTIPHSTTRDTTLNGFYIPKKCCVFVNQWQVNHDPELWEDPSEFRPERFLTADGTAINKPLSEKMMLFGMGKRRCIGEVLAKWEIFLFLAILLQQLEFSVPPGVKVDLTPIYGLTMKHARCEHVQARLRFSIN
Another data set has as its target β-lactamase. It counts as biochemical.
Another data set is described as follows: in vitro. To be noted: both, human, microsomes, pH 7.4.

In general, IC50 refers to the concentration at which inhibition is half-maximal. What is called half-life is the time in which the quantity being followed falls by half. A low value points to fast loss. As a reminder, the microsomal CLint is the capacity of the preparation to metabolise the compound, expressed as a volume cleared per time. In turn, `O=C(O)c1cc(-c2ccc(/C=C3\SC(=S)N(CCc4ccccc4)C3=O)o2)ccc1Cl` [NBCoV1] returned an IC50 in data set [1] of 1397 ± 12 nM. In addition, the IC50 in the data set with Trypsin is more than 2000 nM. In addition, the IC50 in [2] amounted to 76.5 ± 0.3 nM. This compound showed an IC100 in data set [3] of more than 10 µM. For the same compound, the IC50 in data set [4] was more than 2000 nM. The midpoint of inhibition on CYP2C8, the IC50, lay at 2080 nM. Besides, on CYP1A2, the activity at 0.0137 µM was found to be 99.2%, the activity at 0.0412 µM was 96.7%, the activity at 0.123 µM came to 93.8% and the activity at 0.37 µM amounted to 92.2%. On CYP1A2, this compound showed an activity at 1.11 µM of 89.8%, an activity at 3.33 µM of 69.5% and an activity at 10 µM of 41.3%. The compound further registered an IC50 on β-lactamase of more than 2000 nM. Also, in the data set “in vitro”, the half-life was found to be 1.87 h, the microsomal CLint worked out at 12.4 µL/min/mg, the share remaining at 0.25 h stood at 101% and the amount remaining at 0.5 h came out at 80.5%. In the data set “in vitro”, the fraction remaining at 1 h came out at 68.9%, the share remaining at 1.5 h is 69.5% and the share remaining at 2 h amounted to 41.6%.
